Reference: US5391571A, “Cholesterol ester hydrolase inhibitors” (priority 1993, dated 1995)

Experiments:
[1] = target: T1, cholesterol esterase (EC 3.1.1.13) (Bos taurus, UniProt P30122); experiment: in vitro inhibition of cholesteryl ester formation by cholesterol esterase; assay type: biochemical, bovine; conditions: 37° C., cholesterol and oleic acid, cholesterol esterase from bovine pancreas; read-out: IC50 (concentration that inhibits one-half of the ester formation)
T1 construct: purchased Sigma Chemical Company, St. Louis, Mo., USA C-1892; host or cells: bovine pancreas
Protocol: The ability of the compounds of this invention to inhibit the formation of cholesteryl esters and thereby interfere with and prevent assimilation of cholesterol into the lymphatic system and ultimately the blood stream was established by incubating the compounds at 37° C. with a mixture of cholesterol and oleic acid in the presence of buffered cholesterol esterase [(EC 3.1.1.13) Sigma Chemical Company, St. Louis, Mo., USA, No. C-1892, from bovine pancreas] and measuring the amount of ester formed, according to the procedure of Field, J. of Lipid Research, 25 389 (1984).

cholesterol absorption = experiment: in vivo cholesterol absorption study, serum radioactivity after oral [4-^14C] cholesterol; conditions: Rattus norvegicus, 6 h, normal rats, serum radioactivity at six hours
Protocol: The in vivo cholesterol absorption studies were conducted in normal rats by oral administration of the compound being tested in propylene glycol and olive oil followed by oral administration of [4-^14 C] cholesterol in propylene glycol and olive oil, otherwise following the procedure of Cayen et al., J. Lipid Res. 20 162 (1979). The serum radioactivity was measured at six hours after dosing. The results of this study are reported in the following Table, where available, as percent decrease compared to control and in terms of the effective dose (ED50) inhibiting fifty-percent of the absorption of the control animals.

[2] = vs control, read-out: Decrease in [^14C] Cholesterol Absorption

T1 sequence (P30122 19-597): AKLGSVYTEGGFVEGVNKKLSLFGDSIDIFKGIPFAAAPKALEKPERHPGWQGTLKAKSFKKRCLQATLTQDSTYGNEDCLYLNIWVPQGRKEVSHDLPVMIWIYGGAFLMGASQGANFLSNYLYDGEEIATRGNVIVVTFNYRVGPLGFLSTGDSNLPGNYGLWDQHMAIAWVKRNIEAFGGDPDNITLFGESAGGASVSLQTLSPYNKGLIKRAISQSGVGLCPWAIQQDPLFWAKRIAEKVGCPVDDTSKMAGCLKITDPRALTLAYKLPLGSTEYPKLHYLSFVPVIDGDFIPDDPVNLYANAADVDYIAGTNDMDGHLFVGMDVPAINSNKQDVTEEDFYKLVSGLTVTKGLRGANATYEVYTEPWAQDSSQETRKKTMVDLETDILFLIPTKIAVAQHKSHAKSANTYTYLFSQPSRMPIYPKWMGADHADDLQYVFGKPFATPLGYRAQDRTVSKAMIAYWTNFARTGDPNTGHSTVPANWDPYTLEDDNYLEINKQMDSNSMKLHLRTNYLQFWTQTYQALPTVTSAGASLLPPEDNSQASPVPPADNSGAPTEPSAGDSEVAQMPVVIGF

Structure (SMILES): O=C(Oc1ccc(Oc2ccccc2)cc1)N1CCC(O)CC1 [Example 44, 4-Hydroxy1-piperidinecarboxylic acid 4-phenoxyphenyl ester]
- IC50 [1]: 1900 nM
- inhibition in vivo at 50 mg/kg (cholesterol absorption; [2]): 49%

Structure (SMILES): O=C(Oc1ccc(Oc2ccccc2)cc1)N1CCC2(CCCC2)CC1 [Example 52, 8-Azaspiro[4,5]decan-8-carboxylic acid 4-phenoxyphenyl ester]
- IC50 [1]: 750 nM
- inhibition in vivo at 50 mg/kg (cholesterol absorption; [2]): 78%

Structure (SMILES): CN1CCN(C(=O)Oc2ccc(Oc3ccccc3)cc2)CC1 [Example 9, 4-Methyl-1-piperazinecarboxylic acid 4-phenoxyphenyl ester]
- IC50 [1]: > 100000 nM
- inhibition in vivo at 100 mg/kg (cholesterol absorption; [2]): 40%

Structure (SMILES): CC1(C)CCCN(C(=O)Oc2ccc(Oc3ccccc3)cc2)C1 [Example 47, 3,3-Dimethyl-1-piperidinecarboxylic acid 4-phenoxyphenyl ester]
- IC50 [1]: 1600 nM
- inhibition in vivo at 20 mg/kg (cholesterol absorption; 20 mg/kg, vs control, read-out: Decrease in [^14C] Cholesterol Absorption): 67%

Structure (SMILES): CCCC1CCN(C(=O)Oc2ccc(Oc3ccccc3)cc2)CC1 [Example 45, 4Propyl-1-piperidinecarboxylic acid 4-phenoxyphenyl ester]
- IC50 [1]: 70 nM
- inhibition in vivo at 10 mg/kg (cholesterol absorption; 10 mg/kg, vs control, read-out: Decrease in [^14C] Cholesterol Absorption): 41%

Structure (SMILES): CCCCNC(=O)Oc1ccc(Oc2ccc([N+](=O)[O-])cc2)cc1 [Example 20, Butylcarbamic acid 4-(4-nitrophenoxy)phenyl ester]
- IC50 [1]: 7600 nM
- inhibition in vivo at 65 mg/kg (cholesterol absorption; [2]): 27%

Structure (SMILES): O=C(O)C1CCN(C(=O)Oc2ccc(Oc3ccccc3)cc2)CC1 [Example 46, 1.4-Piperidinedicarboxylic acid 1-(1-phenoxyphenyl ester)]
- IC50 [1]: 44000 nM
- inhibition in vivo at 100 mg/kg (cholesterol absorption; [2]): 55%

Structure (SMILES): CCC1CCN(C(=O)Oc2ccc(Oc3ccccc3)cc2)CC1 [Example 42, 4-Ethyl-1-piperidinecarboxylic acid 4-phenoxyphenyl ester]
- IC50 [1]: 50 nM
- inhibition in vivo at 50 mg/kg (cholesterol absorption; [2]): 81%

Structure (SMILES): CCCCCCCCCCCCOC(=O)c1cc(Oc2ccccc2)ccc1OC(=O)N1CCC(C)CC1 [Example 58, 4-Methyl-1-piperidinecarboxylic acid 2-(dodecycloxycarbonyl)-4-phenoxyphenyl ester]
- IC50 [1]: 340 nM
- inhibition in vivo at 50 mg/kg (cholesterol absorption; [2]): 37%

Structure (SMILES): CC1CCN(C(=O)Oc2ccc(Oc3ccccc3)cc2F)CC1 [Example 41, 4-Methyl-1-piperidinecarboxylic acid 2-fluoro-4-phenoxyphenyl ester]
- IC50 [1]: 30 nM
- inhibition in vivo at 50 mg/kg (cholesterol absorption; [2]): 73%

Structure (SMILES): COC(=O)c1cc(Oc2ccccc2)ccc1OC(=O)N1CCC(C)CC1 [Example 49, 4-Methyl-1-piperidinecarboxylic acid 2-(methoxycarbonyl)-4-phenoxyphenyl ester]
- IC50 [1]: 340 nM
- inhibition in vivo at 50 mg/kg (cholesterol absorption; [2]): 28%

Structure (SMILES): O=C(Oc1ccc(Oc2ccccc2)cc1)N1CCCCC1 [Example 2, 1-Piperidinecarboxylic acid 4-phenoxyphenyl ester]
- IC50 [1]: 130 nM
- inhibition in vivo at 100 mg/kg (cholesterol absorption; [2]): 82%
- ED50 (cholesterol absorption; read-out: ED50 (effective dose inhibiting fifty percent of the cholesterol absorption of the control animals)): 24 mg/kg

Structure (SMILES): COc1ccc(Oc2ccc(OC(=O)N3CCC(C)CC3)cc2)cc1 [Example 30, 4-Methyl-1-piperidinecarboxylic acid 4-(4-methoxyphenoxy)phenyl ester]
- IC50 [1]: 1200 nM
- inhibition in vivo at 65 mg/kg (cholesterol absorption; [2]): 83%

Structure (SMILES): CC1CCN(C(=O)Oc2ccc(Oc3ccccc3)cc2C#N)CC1 [Example 54, 4-Methyl-1-piperidinecarboxylic acid 2-cyano-4-phenoxyphenyl ester]
- IC50 [1]: 440 nM
- inhibition in vivo at 50 mg/kg (cholesterol absorption; [2]): 36%

Structure (SMILES): CC1(C)CCN(C(=O)Oc2ccc(Oc3ccccc3)cc2)CC1 [Example 38, 4,4-Dimethyl-1piperidinecarboxylic acid 4-phenoxyphenol ester]
- IC50 [1]: 230 nM
- inhibition in vivo at 50 mg/kg (cholesterol absorption; [2]): 86%

Structure (SMILES): CC1CCCCN1C(=O)Oc1ccc(Oc2ccccc2)cc1 (centres unmarked) [Example 63, 2-Methyl-1-piperidinecarboxylic acid 4-phenoxyphenyl ester]
- IC50 [1]: > 100000 nM
- inhibition in vivo at 50 mg/kg (cholesterol absorption; [2]): 68%

Structure (SMILES): O=C(Oc1ccc(Oc2ccccc2)cc1)N1CCC(CBr)CC1 [Example 57, 4-(Bromomethyl)-1-piperidinecarboxylic acid, 4-phenoxyphenyl ester]
- IC50 [1]: 80 nM
- inhibition in vivo at 50 mg/kg (cholesterol absorption; [2]): 87%
